{
  "source": "patent US20220062299A1",
  "about": "“USE OF GLUCOCORTICOID STEROIDS IN PREVENTING AND TREATING CONDITIONS OF MUSCLE WASTING, AGING AND METABOLIC DISORDER” (NORTHWESTERN UNIVERSITY, priority 2018, published 2022)",
  "key": {"mdx muscles": {"test_system": "mdx muscles", "experiment": "Muscle metabolomics of mdx quadriceps", "format": "in vivo, mouse", "settings": "4 wk exposure", "protocol": "Muscle metabolomics. Total hydrophilic metabolite content was extracted from quadriceps muscle tissue at treatment endpoint through methanol-water (80:20) extraction, adapting conditions described previously (Bruno et al., 2018). Briefly, total metabolite content from quadriceps muscle was obtained from approximately 100 mg (wet weight) quadriceps muscle tissue per animal. Frozen (−80° C.) muscle was pulverized in liquid nitrogen and homogenized with approximately 250 μl 2.3 mm zirconia/silica beads (Cat #11079125z, BioSpec, Bartlesville, Okla.) in 1 ml methanol/water 80:20 (vol/vol) by means of Mini-BeadBeater-16 (Cat #607, Biospec, Bartlesville, Okla.) for 1 minute. After centrifuging at 5000 rpm for 5 minutes, 200 μl of supernatant were transferred into a tube pre-added with 800 μL of ice-cold methanol/water 80% (vol/vol). Samples were vortexed for 1 minute, and then centrifuged at approximately 20,160×g for 15 minutes at 4° C. Metabolite-containing extraction solution was then dried using SpeedVac (medium power). 200 ul of 50% Acetonitrile were added to the tube for reconstitution following by overtaxing for 1 minute. Samples solution were then centrifuged for 15 minutes at 20,000 g, 4° C. Supernatant was collected for LC-MS analysis for Hydrophilic Metabolites Profiling as follows. Samples were analyzed by High-Performance Liquid Chromatography and High-Resolution Mass Spectrometry and Tandem Mass Spectrometry (HPLC-MS/MS). Specifically, system consisted of a Thermo Q-Exactive in line with an electrospray source and an Ultimate3000 (Thermo) series HPLC consisting of a binary pump, degasser, and auto-sampler outfitted with a Xbridge Amide column (Waters; dimensions of 4.6 mm×100 mm and a 3.5 μm particle size). The mobile phase A contained 95% (vol/vol) water, 5% (vol/vol) acetonitrile, 20 mM ammonium hydroxide, 20 mM ammonium acetate, pH=9.0; B was 100% Acetonitrile. […] The capillary of the ESI source was set to 275° C., with sheath gas at 45 arbitrary units, auxiliary gas at 5 arbitrary units and the spray voltage at 4.0 kV. In positive/negative polarity switching mode, an m/z scan range from 70 to 850 was chosen and MS1 data was collected at a resolution of 70,000. The automatic gain control (AGC) target was set at 1×10^6 and the maximum injection time was 200 ms. The top 5 precursor ions were subsequently fragmented, in a data-dependent manner, using the higher energy collisional dissociation (HCD) cell set to 30% normalized collision energy in MS2 at a resolution power of 17,500. The sample volumes of 25 μl were injected. Data acquisition and analysis were carried out by Xcalibur 4.0 software and Tracefinder 2.1 software, respectively (both from Thermo Fisher Scientific). Metabolite levels were analyzed as peak area normalized to wet tissue weight and total […] content. Gene-metabolite pathway enrichment was conducted using the MetaboAnalyst platform (v4.0; Joint Pathway Analysis mode) (Chong et al., 2018). Pulsatile glucocorticoid exposure enhanced mitochondrial respiration in dystrophic muscle through BCAA. […] This correlated with increased catabolism of BCAAs, seen as reduced levels of precursors and intermediates and increased levels of oxoglutarate and succinate in the TCA cycle (FIG. 1B, center). […] Opposing shifts were confirmed by HPLC analyses of muscle ATP and NAD^+and by resting blood lactate (FIGS. 5A and 5B), and these changes correlated with parallel shifts in muscle glycogen content (FIG. 5C)."}, "[1]": {"test_system": "quadriceps muscle of mdx mice", "experiment": "Tissue respirometry on quadriceps muscle", "format": "in vivo, mouse", "settings": "weekly prednisone, opposite to daily dosing", "protocol": "Tissue respirometry. Whole-tissue analysis of basal rates of oxygen consumption (OCR) and extracellular acidification (ECAR) was conducted adapting reported conditions for intact muscle tissue analysis (Shintaku and Guttridge, 2016) to the XF96 Extracellular Flux Analyzer platform (Agilent, Santa Clara, Calif.). Immediately after mouse sacrification, target muscle (quadriceps) tissues were quickly collected, rinsed in clean PBS buffer and dissected into approximately 2×2×2 mm pieces. At least three biopsies were sampled for each tissue. […] Respirometry analysis was then performed on equilibrated tissue biopsies using the following protocol for each basal or post-injection read: 3 min mix, 5 min delay, 2 min measure. Basal rate reads were collected for 6 consecutive times, then drugs were injected and control reads gathered for additional 3 consecutive times. […] Compound concentrations were determined on literature and/or preliminary test assays on wildtype muscle biopsies, and the concentration of the compound when loaded in the cartridge port was 10× in appropriate solvent (typically DMSO or ddH2O). OCR/ECAR reads were averaged for same tissue replicates and subtracted of background noise values (empty wells with only medium and appropriate compound). […]"}},
  "data": [
    {"smiles": "C[C@]12C=CC(=O)C=C1CC[C@@H]1[C@@H]2C(=O)C[C@@]2(C)[C@H]1CC[C@]2(O)C(=O)CO", "note": "[prednisone, Prednisone]", "values": [
      {"measurement": "BCAA and glucose catabolism", "setting": "mdx muscles; daily prednisone", "value": "substantial impairment"},
      {"measurement": "NAD+ and NADH in muscle", "setting": "mdx muscles; daily prednisone", "value": "loss"},
      {"measurement": "Glycolysis (levels of pyruvate and lactate)", "setting": "mdx muscles; weekly prednisone", "value": "increased"},
      {"measurement": "catabolism of BCAAs", "setting": "mdx muscles; weekly prednisone", "value": "increased"},
      {"measurement": "ATP, phosphocreatine, and NAD+ in muscle", "setting": "mdx muscles; weekly prednisone, vs vehicle", "value": "increased"},
      {"measurement": "glucose-fueled lactate production", "setting": "[1]", "value": "improved"},
      {"measurement": "valine-fueled oxygen consumption", "setting": "[1]", "value": "improved"}
    ]}
  ]
}
